Test results: ChEMBL document CHEMBL1130909, “General construction pattern of histamine H3-receptor antagonists: change of a paradigm” (Bioorg Med Chem Lett, 1998)

molecular target: Histamine H3 receptor (Rattus norvegicus, UniProt Q9QYN8); assay: In vitro Histamine H3 receptor antagonist activity in an assay with K+-evoked depolarization-induced release of [3H]histamine from synaptosomes of rat cerebral cortex; assay type: functional, subcellular, Brain
Sequence (Q9QYN8 whole entry): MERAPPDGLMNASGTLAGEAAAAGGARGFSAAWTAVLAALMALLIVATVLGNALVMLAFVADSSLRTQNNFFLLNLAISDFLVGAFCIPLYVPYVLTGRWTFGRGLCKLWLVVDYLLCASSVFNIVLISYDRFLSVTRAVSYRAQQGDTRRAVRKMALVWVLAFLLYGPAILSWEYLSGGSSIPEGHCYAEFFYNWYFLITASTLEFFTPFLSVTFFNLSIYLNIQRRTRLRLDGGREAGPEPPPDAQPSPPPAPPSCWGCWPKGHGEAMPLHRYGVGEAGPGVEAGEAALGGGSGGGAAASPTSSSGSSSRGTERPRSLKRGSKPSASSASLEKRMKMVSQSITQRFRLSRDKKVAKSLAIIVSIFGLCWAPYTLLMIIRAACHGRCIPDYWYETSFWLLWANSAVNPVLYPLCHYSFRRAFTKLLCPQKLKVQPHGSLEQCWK

Ki [nM]	SMILES
400	CCCCCCCCCc1c[nH]cn1
> 500	CCCCCCC/C=C\c1c[nH]cn1

SMILES	Ki [nM]
C(=C\CCc1c[nH]cn1)/CCc1ccccc1	42
